Test results reported in patent US4344958A, “Method of inhibiting sickling of sickle erythrocytes using substituted-2-imidazolines” (priority 1980, dated 1982).

How the values were obtained:
[1] = target: Hb-S (Homo sapiens, UniProt P68871+P69905, E7V); test: Oxygen-Affinity Assay (whole Hb-S blood, tonometer); assay type: cell-based; parameters: key: ΔP50 in mm Hg (oxygen tension at 50% saturation, control vs treated); conditions: 37° C., difference control vs treated, negative = toward normal Hb-S oxygen affinity, oxygen partial pressure plotted in mm Hg
Procedure: The compounds described herein were tested in an "Oxygen-Affinity Assay" to measure the ability of the compound to influence the Hb-S oxygen affinity. There is a relationship between oxygen binding and Hb-S gelation and thus a measure of oxygen affinity is an index of Hb-S aggregation within the red blood cell. Hemoglobin S polymers decrease the overall oxygen affinity. Thus a return to normal of Hb-S oxygen affinity is a measure of decreased gelation. For measurements of oxygen equilibria whole Hb-S blood was equilibrated in a tonometer at 37° C. and measurements were made in the presence of a 5 millimolar (mM) or 10 mM concentration of the test compound. The whole blood pH, oxygen tension, and blood PO2 were measured. The percentage of oxygen saturation was plotted against the partial pressure of oxygen (mm Hg). The P50 value (oxygen tension at 50% saturation) was determined for each control and treated whole blood sample and the difference (Δ P50) between the control and treated whole blood sample noted. As used herein, a negative Δ P50 represents a change toward a normal Hb-S oxygen affinity and thus is a measure of the test compound's ability to inhibit the sickling of sickle erythrocytes.

[2] = normal adults, single dosages 25 to 250 milligrams, cited from earlier work
[3] = compound and its pharmaceutically-acceptable salts; cited from earlier work
[4] = compound and its pharmaceutically-acceptable salts; cited from earlier work; remark: listed apart in the source
[5] = compound and its pharmaceutically-acceptable salts; cited from earlier work; remark: listed apart in the source
[6] = compound and its pharmaceutically-acceptable salts; cited from earlier work; remark: listed apart in the source

Row | Δ P50 ([1]; 5 mM test compound) | Δ P50 ([1]; 10 mM test compound) | Compound | also measured
1 | 0 | -13.0 | Cl.Oc1ccc(SCC2=NCCN2)cc1Cl [Example 3, 2-Chloro-4-(((2-imidazolin-2-yl)methyl)thio)-phenol Hydrochloride] | 
2 | -9 | -10.0 | Cl.Cl.Nc1ccc(SCC2=NCCN2)cc1Cl [Example 4, 2-(((4-Amino-3-chlorophenyl)thio)methyl)-2-imidazoline Dihydrochloride] | 

The next lines start with the molecule.

Row | Compound | Δ P50 ([1]; 5 mM test compound) | Δ P50 ([1]; 10 mM test compound) | also measured
3 | Cl.Clc1ccc(NCC2=NCCN2)cc1Cl [Example 1, 2-((3,4-dichloroanilino)methyl)-2-imidazoline hydrochloride] | -9 | -12.6 | 
4 | Cl.Clc1ccc(OCC2=NCCN2)cc1Cl [Example 2, 2-((3,4-dichlorophenoxy)methyl)-2-imidazoline hydrochloride] | -8 | -8.0 | blood pressure ([2]; at high dose level): increased blood pressure; heart rate ([2]; at high dose level): decreased heart rate; ill effects [2]: no ill effects other than a "tingling sensation" on the skin reported by some of the subjects
5 | Clc1ccc(OCC2=NCCN2)cc1Cl [fenmetozole, 2-((3,4-Dichlorophenoxy)methyl)-2-imidazoline] |  |  | antidepressant activity [3]: antidepressant; barbiturate antagonist activity [4]: barbiturate antagonist activity; alcohol antagonist activity [5]: alcohol antagonist activity; activity against minimal brain dysfunction in children [6]: activity against minimal brain dysfunction in children
